Experimental data published in patent US20100137449A1, “SUBSTITUTED 1,3-CYCLOPENTADIONE MULTI-TARGET PROTEIN KINASE MODULATORS OF CANCER, ANGIOGENESIS AND THE INFLAMMATORY PATHWAYS ASSOCIATED THEREWITH” (METAPROTEOMICS, LLC, priority 2007, published 2010).

How the values were obtained:
Assay in all cases: KinaseProfiler Assay
[1] = target: T1, SAPK4(h) (Homo sapiens, UniProt O15264)
T1 sequence (O15264 1-365): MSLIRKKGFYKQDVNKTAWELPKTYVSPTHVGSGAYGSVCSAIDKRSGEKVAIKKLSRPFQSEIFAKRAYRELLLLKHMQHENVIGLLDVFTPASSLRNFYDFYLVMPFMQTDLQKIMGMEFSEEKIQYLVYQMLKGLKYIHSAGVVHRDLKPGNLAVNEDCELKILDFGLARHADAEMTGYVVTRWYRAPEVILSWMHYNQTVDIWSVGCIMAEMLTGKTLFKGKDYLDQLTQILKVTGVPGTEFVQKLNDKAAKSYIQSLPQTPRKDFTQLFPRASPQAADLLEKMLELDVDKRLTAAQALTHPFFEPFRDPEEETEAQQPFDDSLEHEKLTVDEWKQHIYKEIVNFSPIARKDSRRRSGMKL

[2] = target: Plk3(h) (Homo sapiens, UniProt Q9H4B4)
Plk3(h), sequence (Q9H4B4 whole entry): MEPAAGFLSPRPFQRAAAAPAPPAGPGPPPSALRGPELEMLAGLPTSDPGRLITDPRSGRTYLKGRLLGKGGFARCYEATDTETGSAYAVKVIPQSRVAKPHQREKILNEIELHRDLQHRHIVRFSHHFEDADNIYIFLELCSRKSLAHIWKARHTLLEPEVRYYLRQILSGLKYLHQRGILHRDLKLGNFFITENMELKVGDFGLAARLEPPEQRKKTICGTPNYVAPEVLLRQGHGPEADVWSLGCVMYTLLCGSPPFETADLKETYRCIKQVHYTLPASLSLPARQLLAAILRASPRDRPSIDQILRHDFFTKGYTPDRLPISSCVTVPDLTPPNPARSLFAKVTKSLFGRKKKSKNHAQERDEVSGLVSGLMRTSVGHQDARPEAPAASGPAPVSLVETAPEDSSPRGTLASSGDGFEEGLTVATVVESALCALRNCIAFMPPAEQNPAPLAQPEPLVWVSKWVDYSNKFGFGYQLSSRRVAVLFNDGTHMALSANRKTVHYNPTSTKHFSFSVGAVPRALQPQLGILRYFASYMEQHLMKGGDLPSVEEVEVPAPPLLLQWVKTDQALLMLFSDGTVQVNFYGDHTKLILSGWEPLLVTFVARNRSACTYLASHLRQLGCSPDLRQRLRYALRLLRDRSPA

[3] = target: ACK1(h) (Homo sapiens, UniProt Q07912)
[4] = target: FGFR1(V561M)(h) (Homo sapiens, UniProt P11362, V561M)
FGFR1(V561M)(h), sequence (P11362 22-822 V561M): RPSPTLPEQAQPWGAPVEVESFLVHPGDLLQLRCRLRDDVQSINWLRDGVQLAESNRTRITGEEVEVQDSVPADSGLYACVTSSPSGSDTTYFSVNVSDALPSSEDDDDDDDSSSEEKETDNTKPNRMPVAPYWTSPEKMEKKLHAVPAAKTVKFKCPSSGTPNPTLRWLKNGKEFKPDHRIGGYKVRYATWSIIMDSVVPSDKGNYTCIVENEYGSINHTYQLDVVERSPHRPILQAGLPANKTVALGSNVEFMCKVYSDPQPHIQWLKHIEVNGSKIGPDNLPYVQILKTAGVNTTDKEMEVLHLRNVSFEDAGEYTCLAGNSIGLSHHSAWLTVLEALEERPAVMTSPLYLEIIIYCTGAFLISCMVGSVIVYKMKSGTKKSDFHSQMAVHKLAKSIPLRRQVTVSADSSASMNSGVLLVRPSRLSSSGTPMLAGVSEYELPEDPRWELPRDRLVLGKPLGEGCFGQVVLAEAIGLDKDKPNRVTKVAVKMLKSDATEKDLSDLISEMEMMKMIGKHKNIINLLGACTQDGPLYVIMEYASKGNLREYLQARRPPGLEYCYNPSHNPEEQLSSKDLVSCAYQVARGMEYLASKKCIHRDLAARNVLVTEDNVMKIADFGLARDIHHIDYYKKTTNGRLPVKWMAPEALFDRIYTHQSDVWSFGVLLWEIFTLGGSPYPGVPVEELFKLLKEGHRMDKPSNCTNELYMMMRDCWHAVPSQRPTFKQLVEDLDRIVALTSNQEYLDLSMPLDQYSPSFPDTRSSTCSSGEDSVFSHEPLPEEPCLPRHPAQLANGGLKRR

[5] = target: Ret(V804L)(h) (Homo sapiens, UniProt P07949, V804L)
Ret(V804L)(h), sequence (P07949 29-1114 V804L): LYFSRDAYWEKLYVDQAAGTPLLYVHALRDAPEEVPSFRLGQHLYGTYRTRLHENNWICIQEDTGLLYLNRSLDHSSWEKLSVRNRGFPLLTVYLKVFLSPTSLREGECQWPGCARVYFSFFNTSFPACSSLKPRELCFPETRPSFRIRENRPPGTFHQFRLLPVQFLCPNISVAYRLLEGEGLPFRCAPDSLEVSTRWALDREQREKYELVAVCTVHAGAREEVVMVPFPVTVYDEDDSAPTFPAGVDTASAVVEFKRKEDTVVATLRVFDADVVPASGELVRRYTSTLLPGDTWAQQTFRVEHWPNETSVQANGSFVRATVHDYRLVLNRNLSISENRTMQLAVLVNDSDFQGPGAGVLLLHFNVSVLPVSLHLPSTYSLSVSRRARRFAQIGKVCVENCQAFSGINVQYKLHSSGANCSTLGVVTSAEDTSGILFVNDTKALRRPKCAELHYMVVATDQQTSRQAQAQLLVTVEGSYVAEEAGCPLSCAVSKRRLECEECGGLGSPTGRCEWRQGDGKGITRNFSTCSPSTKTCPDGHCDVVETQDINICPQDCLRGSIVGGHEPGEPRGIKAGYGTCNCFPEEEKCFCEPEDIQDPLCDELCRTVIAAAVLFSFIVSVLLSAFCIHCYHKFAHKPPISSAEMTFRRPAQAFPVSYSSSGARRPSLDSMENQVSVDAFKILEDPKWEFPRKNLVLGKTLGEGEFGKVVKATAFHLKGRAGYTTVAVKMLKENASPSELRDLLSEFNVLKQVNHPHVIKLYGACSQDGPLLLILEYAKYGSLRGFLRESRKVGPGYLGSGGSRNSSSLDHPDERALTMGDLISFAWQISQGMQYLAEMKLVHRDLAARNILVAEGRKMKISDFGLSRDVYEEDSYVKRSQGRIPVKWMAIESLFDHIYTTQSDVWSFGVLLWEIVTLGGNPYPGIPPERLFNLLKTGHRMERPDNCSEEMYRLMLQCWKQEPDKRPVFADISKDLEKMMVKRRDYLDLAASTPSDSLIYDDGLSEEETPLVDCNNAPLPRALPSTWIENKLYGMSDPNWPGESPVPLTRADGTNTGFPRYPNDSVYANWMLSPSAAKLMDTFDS

[6] = target: Abl(H396P)(h) (Homo sapiens, UniProt P00519, H396P)
[7] = target: cSRC(h) (Homo sapiens, UniProt P12931)
cSRC(h), sequence (P12931 whole entry): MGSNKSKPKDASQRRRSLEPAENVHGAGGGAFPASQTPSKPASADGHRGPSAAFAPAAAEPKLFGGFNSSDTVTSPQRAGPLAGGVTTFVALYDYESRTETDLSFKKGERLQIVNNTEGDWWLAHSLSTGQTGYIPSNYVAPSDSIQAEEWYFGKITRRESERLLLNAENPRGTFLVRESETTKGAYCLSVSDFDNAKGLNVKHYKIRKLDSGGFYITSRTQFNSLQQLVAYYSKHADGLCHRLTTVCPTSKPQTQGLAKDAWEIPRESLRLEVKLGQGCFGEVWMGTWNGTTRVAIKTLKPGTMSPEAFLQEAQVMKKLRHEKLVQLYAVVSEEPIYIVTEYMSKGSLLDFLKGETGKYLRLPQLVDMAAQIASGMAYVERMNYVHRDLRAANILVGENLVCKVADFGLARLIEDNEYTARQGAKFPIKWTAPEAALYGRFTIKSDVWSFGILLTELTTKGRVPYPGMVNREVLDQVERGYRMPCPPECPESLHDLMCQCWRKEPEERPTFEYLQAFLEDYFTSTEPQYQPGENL

[8] = target: Yes(h) (Homo sapiens, UniProt P07947)
Yes(h), sequence (P07947 whole entry): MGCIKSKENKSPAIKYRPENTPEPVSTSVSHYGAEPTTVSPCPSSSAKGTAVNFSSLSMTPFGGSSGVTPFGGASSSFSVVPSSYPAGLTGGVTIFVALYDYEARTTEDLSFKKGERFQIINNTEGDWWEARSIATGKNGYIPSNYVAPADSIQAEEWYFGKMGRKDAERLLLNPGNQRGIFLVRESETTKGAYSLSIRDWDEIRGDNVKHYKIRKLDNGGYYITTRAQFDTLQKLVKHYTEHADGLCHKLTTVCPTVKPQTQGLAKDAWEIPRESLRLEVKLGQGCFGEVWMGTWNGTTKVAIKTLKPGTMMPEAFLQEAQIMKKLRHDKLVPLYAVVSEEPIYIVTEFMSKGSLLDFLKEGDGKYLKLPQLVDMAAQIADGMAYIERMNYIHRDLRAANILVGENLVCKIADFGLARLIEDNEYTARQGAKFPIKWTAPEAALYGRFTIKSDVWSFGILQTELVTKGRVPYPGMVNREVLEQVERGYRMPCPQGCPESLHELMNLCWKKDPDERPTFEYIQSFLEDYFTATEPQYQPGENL

[9] = target: TLK2(h) (Homo sapiens, UniProt Q86UE8)
[10] = target: CK1γ2(h) (Homo sapiens, UniProt P78368)
[11] = target: Tie2(Y897S)(h) (Homo sapiens, UniProt Q02763, Y897S)
Tie2(Y897S)(h), sequence (Q02763 23-1124 Y897S): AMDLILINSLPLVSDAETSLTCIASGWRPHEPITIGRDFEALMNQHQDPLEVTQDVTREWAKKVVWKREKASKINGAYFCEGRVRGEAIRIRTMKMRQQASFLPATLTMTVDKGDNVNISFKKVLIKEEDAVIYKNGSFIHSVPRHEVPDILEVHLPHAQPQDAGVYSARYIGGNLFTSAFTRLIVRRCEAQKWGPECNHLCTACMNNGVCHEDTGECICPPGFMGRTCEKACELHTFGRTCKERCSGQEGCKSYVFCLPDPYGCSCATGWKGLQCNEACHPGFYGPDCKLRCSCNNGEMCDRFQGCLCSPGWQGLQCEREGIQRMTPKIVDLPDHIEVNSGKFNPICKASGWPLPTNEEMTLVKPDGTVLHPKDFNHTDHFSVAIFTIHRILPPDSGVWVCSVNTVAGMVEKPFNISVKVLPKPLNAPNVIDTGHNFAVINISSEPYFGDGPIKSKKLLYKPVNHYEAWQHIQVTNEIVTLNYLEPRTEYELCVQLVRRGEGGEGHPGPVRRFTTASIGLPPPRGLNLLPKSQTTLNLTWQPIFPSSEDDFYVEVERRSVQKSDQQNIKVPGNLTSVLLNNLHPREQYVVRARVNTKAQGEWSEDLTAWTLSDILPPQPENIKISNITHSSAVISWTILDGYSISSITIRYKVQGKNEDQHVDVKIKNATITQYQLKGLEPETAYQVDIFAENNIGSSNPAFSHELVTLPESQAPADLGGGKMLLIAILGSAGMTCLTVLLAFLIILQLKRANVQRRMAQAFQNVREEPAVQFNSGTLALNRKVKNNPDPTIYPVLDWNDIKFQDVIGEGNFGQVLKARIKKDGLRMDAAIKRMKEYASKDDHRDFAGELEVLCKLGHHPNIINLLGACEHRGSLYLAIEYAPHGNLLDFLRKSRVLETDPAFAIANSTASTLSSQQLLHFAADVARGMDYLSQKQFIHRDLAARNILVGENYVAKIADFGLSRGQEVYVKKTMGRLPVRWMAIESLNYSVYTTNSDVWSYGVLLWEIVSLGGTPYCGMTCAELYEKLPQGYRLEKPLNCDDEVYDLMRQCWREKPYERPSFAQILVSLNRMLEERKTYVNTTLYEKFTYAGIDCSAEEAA

[12] = target: PAK6(h) (Homo sapiens, UniProt Q9NQU5)
[13] = target: T2, PhKγ2(h) (Homo sapiens, UniProt P15735)
T2 sequence (P15735 1-406): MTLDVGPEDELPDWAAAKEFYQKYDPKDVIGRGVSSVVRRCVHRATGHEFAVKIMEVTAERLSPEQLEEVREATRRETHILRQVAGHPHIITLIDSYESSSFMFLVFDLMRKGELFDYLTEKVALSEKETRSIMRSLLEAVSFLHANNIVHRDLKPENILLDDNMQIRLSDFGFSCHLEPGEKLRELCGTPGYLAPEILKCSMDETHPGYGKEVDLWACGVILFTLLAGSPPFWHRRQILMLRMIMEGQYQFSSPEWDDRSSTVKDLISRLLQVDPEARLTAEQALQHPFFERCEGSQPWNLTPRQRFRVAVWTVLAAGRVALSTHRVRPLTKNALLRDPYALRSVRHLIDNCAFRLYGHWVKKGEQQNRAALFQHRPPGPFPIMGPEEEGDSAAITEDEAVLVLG

In the case of `CC(C)CCC(=O)[C@]1(O)C(O)=C(C(=O)C(C)C)C(=O)[C@H]1CCC(C)C` [TH2, tetrahydroiso-cohumulone], the kinase inhibition ([1]; 1 μg/ml) is reported as 114% of control, the kinase inhibition ([1]; 5 μg/ml) is reported as 118% of control and the kinase inhibition ([1]; 25 μg/ml) is reported as 116% of control. The kinase inhibition ([1]; 50 μg/ml) was 121% of control, the kinase inhibition ([1]; 100 μg/ml) was 109% of control and the kinase inhibition ([2]; 1 μg/ml) was 120% of control. For the same compound, the kinase inhibition ([2]; 5 μg/ml) was 105% of control, the kinase inhibition ([2]; 25 μg/ml) was 104% of control and the kinase inhibition ([2]; 50 μg/ml) was 99% of control. For the same compound, the kinase inhibition ([2]; 100 μg/ml) was 86% of control, the kinase inhibition ([3]; 1 μg/ml) was 117% of control and the kinase inhibition ([3]; 5 μg/ml) was 124% of control. The kinase inhibition ([3]; 25 μg/ml) was 97% of control, the kinase inhibition ([3]; 50 μg/ml) was 86% of control and the kinase inhibition ([3]; 100 μg/ml) was 81% of control. The kinase inhibition ([4]; 1 μg/ml) was 105% of control, the kinase inhibition ([4]; 5 μg/ml) was 107% of control and the kinase inhibition ([4]; 25 μg/ml) was 95% of control. The kinase inhibition ([4]; 50 μg/ml) was 79% of control, the kinase inhibition ([4]; 100 μg/ml) was 75% of control and the kinase inhibition ([5]; 1 μg/ml) was 110% of control. The kinase inhibition ([5]; 5 μg/ml) was 103% of control, the kinase inhibition ([5]; 25 μg/ml) was 91% of control and the kinase inhibition ([5]; 50 μg/ml) was 81% of control. The kinase inhibition ([5]; 100 μg/ml) was 60% of control, the kinase inhibition ([6]; 1 μg/ml) was 96% of control and the kinase inhibition ([6]; 5 μg/ml) was 103% of control. For the same compound, the kinase inhibition ([6]; 25 μg/ml) was 83% of control, the kinase inhibition ([6]; 50 μg/ml) was 65% of control and the kinase inhibition ([6]; 100 μg/ml) was 54% of control. The kinase inhibition ([7]; 1 μg/ml) was 114% of control, the kinase inhibition ([7]; 5 μg/ml) was 114% of control and the kinase inhibition ([7]; 25 μg/ml) was 108% of control. For the same compound, the kinase inhibition ([7]; 50 μg/ml) was 101% of control, the kinase inhibition ([7]; 100 μg/ml) was 87% of control and the kinase inhibition ([8]; 1 μg/ml) was 92% of control. For the same compound, the kinase inhibition ([8]; 5 μg/ml) was 81% of control, the kinase inhibition ([8]; 25 μg/ml) was 116% of control and the kinase inhibition ([8]; 50 μg/ml) was 111% of control. The kinase inhibition ([8]; 100 μg/ml) was 104% of control, the kinase inhibition ([9]; 1 μg/ml) was 98% of control and the kinase inhibition ([9]; 5 μg/ml) was 89% of control. The kinase inhibition ([9]; 25 μg/ml) was 106% of control, the kinase inhibition ([9]; 50 μg/ml) was 94% of control and the kinase inhibition ([9]; 100 μg/ml) was 98% of control. For the same compound, the kinase inhibition ([10]; 1 μg/ml) was 103% of control, the kinase inhibition ([10]; 5 μg/ml) was 96% of control and the kinase inhibition ([10]; 25 μg/ml) was 79% of control. For the same compound, the kinase inhibition ([10]; 50 μg/ml) was 54% of control, the kinase inhibition ([10]; 100 μg/ml) was 49% of control and the kinase inhibition ([11]; 1 μg/ml) was 82% of control. The kinase inhibition ([11]; 5 μg/ml) was 46% of control, the kinase inhibition ([11]; 25 μg/ml) was 27% of control and the kinase inhibition ([11]; 50 μg/ml) was 35% of control. For the same compound, the kinase inhibition ([11]; 100 μg/ml) was 32% of control, the kinase inhibition ([12]; 1 μg/ml) was 85% of control and the kinase inhibition ([12]; 5 μg/ml) was 113% of control. The kinase inhibition ([12]; 25 μg/ml) was 90% of control, the kinase inhibition ([12]; 50 μg/ml) was 89% of control and the kinase inhibition ([12]; 100 μg/ml) was 42% of control. For the same compound, the kinase inhibition ([13]; 1 μg/ml) was 112% of control, the kinase inhibition ([13]; 5 μg/ml) was 116% of control and the kinase inhibition ([13]; 25 μg/ml) was 114% of control. For the same compound, the kinase inhibition ([13]; 50 μg/ml) was 88% of control and the kinase inhibition ([13]; 100 μg/ml) was 63% of control.
